Where two headings read alike, the source gives them in different places.
How the values were obtained:
[1] = system: Aβ40 in conditioned medium of cells stably expressing Amyloid Precursor Protein (APP); experiment: In vitro BACE cell-based assay (Aβ40 in conditioned medium, sandwich ELISA);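 further: compounds added as a dilution series, secreted peptide quantified by europium time-resolved fluorescence readout, potency fitted from percent of control versus compound concentration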
[2] = biological target: Beta Secretase enzyme (BACE) (Homo sapiens, UniProt P56817); experiment: In vitro enzymatic BACE FRET (fluorescence resonance energy transfer) assay; assay type: biochemical;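 further: fluorescence read after 1 h with 50 nM quenched peptide substrate spanning the BACE cleavage site, in pH 4.2 acetate buffer containing 10% DMSO and nonionic detergent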
[3] = Homo sapiens, HEK293, HEK cells, cell-based assay, read-out: HEK cell assay (IC50)
[4] = BACE enzyme FRET assay, read-out: BACE1 FRET assay (IC50)
[5] = BACE enzyme assay, read-out: BACE1 FRET assay (IC50)
[6] = Homo sapiens, HEK293, Table 1, HEK cells, read-out: HEK cell assay
[7] = Table 1, read-out: BACE1 FRET assay
[8] = HEK cells, cell-based assay, read-out: HEK cell assay (IC50)
[9] = BACE enzyme assay, IC50's in uM, read-out: BACE1 FRET assay
[10] = Homo sapiens, HEK293, HEK cell-based assay, IC50's in uM, read-out: HEK cell assay

Chain of Beta Secretase enzyme (BACE) (P56817 46-501): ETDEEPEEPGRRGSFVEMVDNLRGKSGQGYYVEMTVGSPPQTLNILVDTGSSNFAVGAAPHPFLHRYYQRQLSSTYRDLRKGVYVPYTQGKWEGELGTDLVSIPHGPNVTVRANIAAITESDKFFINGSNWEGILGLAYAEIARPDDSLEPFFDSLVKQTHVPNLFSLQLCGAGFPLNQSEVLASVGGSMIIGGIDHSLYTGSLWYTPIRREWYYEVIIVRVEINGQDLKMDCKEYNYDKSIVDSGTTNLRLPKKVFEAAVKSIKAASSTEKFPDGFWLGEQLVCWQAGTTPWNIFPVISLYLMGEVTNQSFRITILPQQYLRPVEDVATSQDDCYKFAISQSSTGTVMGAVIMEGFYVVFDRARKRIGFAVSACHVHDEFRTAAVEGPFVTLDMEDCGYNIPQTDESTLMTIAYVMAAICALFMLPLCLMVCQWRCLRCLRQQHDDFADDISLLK

SMILES	IC50 [1, 3]	IC50 [2, 4]	other results
CO[C@@H](C)C(=O)N[C@@H](Cc1cc(F)c2c(c1)OCO2)[C@H](O)CN[C@H]1CC2(CCC2)Oc2ncc(CC(C)(C)C)cc21 [compound 304]	0.0882 µM	0.0376 µM	–
CC(=O)N[C@@H](Cc1ccc2c(c1)OCO2)[C@H](O)CN[C@H]1CC2(CCC2)Oc2ncc(CC(C)(C)CF)cc21 [compound 178]	0.0175 µM	–	IC50 [2, 5]: 0.00839 µM
CCc1cnc2c(c1)[C@@H](NC[C@@H](O)[C@H](Cc1cc(F)cc(-c3nccs3)c1)NC(=O)COC)CC1(CCC1)O2 [compound 728]	–	–	IC50 ([1]; Homo sapiens, HEK293, HEK cell-based assay IC50, read-out: HEK cell assay): 0.108 µM; IC50 ([2]; BACE enzyme assay IC50, read-out: BACE1 FRET assay): 0.03 µM
COCC(=O)N[C@@H](Cc1cc(Cl)c2c(c1)OCO2)[C@H](O)CN[C@H]1CC2(CCC2)Oc2ncc(CC(C)(C)C)cc21 [compound 208]	0.00996 µM	0.00641 µM	–
CNc1nc(CC(C)(C)C)cc2c1OC1(CCC1)C[C@@H]2NC[C@@H](O)[C@H](Cc1ccc(F)cc1)NC(=O)COC [compound 147]	0.0232 µM	–	IC50 [2, 5]: 0.0495 µM
COCC(=O)N[C@@H](Cc1ccccc1)[C@H](O)CN[C@H]1CC2(CCC2)Oc2ncc(CC3(C(F)(F)F)CC3)cc21 [compound 319]	–	–	IC50 [1, 6]: 0.309 µM; IC50 [2, 7]: 0.0558 µM
CC(=O)N[C@@H](Cc1ccc2c(c1)OCO2)[C@H](O)CN[C@H]1CC2(CCC2)Oc2ncc(C[C@@H](C)C(F)(F)F)cc21 [compound 321]	–	–	IC50 [1, 6]: 0.0646 µM; IC50 [2, 7]: 0.134 µM
CC(C)(C)Cc1cnc2c(c1)[C@@H](NC[C@@H](O)[C@H](Cc1ccc3c(c1)OCO3)NC(=O)OCc1cncs1)CC1(CCC1)O2 [compound 101]	–	–	IC50 [1, 8]: 1.85 µM; IC50 [2, 5]: 0.159 µM
CC(=O)N[C@@H](Cc1cccc(F)c1)[C@H](O)CN[C@H]1CC2(CCC2)Oc2ncc(C[C@@H](C)C(F)(F)F)cc21 [compound 315]	–	–	IC50 [1, 6]: 0.00943 µM; IC50 [2, 7]: 0.00611 µM
COC(=O)C1CC2(C1)CC(NCC(O)C(Cc1ccc(F)cc1)NC(C)=O)c1cc(CC(C)(C)C)cnc1O2 [compound 258, methyl (1r,3S,4′S)-4′-(((2R,3S)-3-(acetylamino)-4-(4-fluorophenyl)-2-hydroxybutyl)amino)-6′-(2,2-dimethylpropyl)-3′,4′-dihydrospiro[cyclobutane-1,2′-pyrano[2,3-b]pyridine]-3-carboxylate]	–	0.0389 µM	IC50 [1, 8]: 0.0929 µM
CC(=O)N[C@@H](Cc1ccc(F)cc1)[C@H](O)CN[C@H]1CC2(CCC2)Cc2ncc(CC(C)(C)C)cc21 [compound 164]	0.0205 µM	–	IC50 [2, 5]: 0.0623 µM
C#Cc1ccc(C[C@H](NC(=O)COC)[C@H](O)CN[C@H]2CC3(CCC3)Oc3ncc(CC(C)C)cc32)cc1 [Example 855]	–	–	IC50 ([1]; Homo sapiens, HEK293, cell-based assay, HEK cells, IC50's in uM, read-out: HEK cell assay): 0.174 µM; IC50 [2, 9]: 0.062 µM
CC#Cc1cccc(C[C@H](NC(=O)[C@@H](C)OC)[C@H](O)CN[C@H]2CC3(CCC3)Oc3ncc(CC(C)C)cc32)c1 [compound 803]	–	–	IC50 [1, 10]: 0.132 µM; IC50 [2, 9]: 0.022 µM
CO[C@H](C)C(=O)N[C@@H](Cc1ccc(F)cc1)[C@H](O)CN[C@H]1CC2(CCC2)Oc2ncc([C@H](F)C(C)(C)C)cc21 [compound 186]	0.0265 µM	0.00776 µM	–
CC(=O)N[C@@H](Cc1ccccc1)[C@H](O)CN[C@H]1CC2(CCC2)Oc2ncc(CC(C)(C)CF)cc21 [compound 180]	0.007 µM	–	IC50 [2, 5]: 0.00232 µM
CC(C)(C)Cc1cnc2c(c1)[C@@H](NC[C@@H](O)[C@H](Cc1cc(F)cc(F)c1)NC(=O)C(Cl)Cl)CC1(CCC1)O2 [compound 95]	0.0167 µM	–	IC50 [2, 5]: 0.00043 µM
CO[C@H](C)C(=O)N[C@@H](Cc1cc(F)cc(Cl)c1)[C@H](O)CN[C@H]1CC2(CCC2)Oc2ccc(CC(C)C)cc21 [compound 805]	–	–	IC50 [1, 10]: 0.07 µM; IC50 [2, 9]: 0.003 µM
CO[C@H](C)C(=O)N[C@@H](Cc1ccc2c(c1)OC(F)(F)O2)[C@H](O)CN[C@H]1CC2(CCC2)Oc2ncc(CC(C)(C)C)cc21 [compound 295]	1.33 µM	0.0969 µM	–
CC(=O)N[C@@H](Cc1ccnc(OCC(F)F)c1)[C@H](O)CN[C@H]1CC2(CCC2)Oc2c(F)cc(CC(C)(C)C)cc21 [compound 223]	0.0298 µM	0.00969 µM	–
COCC(=O)NC(Cc1cccc(F)c1)C(O)CNC1CC2(CC(O)C2)Oc2cnccc21 [compound 236, N-((1S,2R)-1-((3-fluorophenyl)methyl)-2-hydroxy-3-(((1r,3R,4′S)-3-hydroxy-3′,4′-dihydrospiro[cyclobutane-1,2′-pyrano[2,3-c]pyridin]-4′-yl)amino)propyl)-2-(methyloxy)acetamide]	–	5.18 µM	IC50 [1, 8]: 0.27 µM

SMILES	IC50 [1, 3]	IC50 [2, 4]	other results
CC(=O)N[C@@H](Cc1ccccc1)[C@H](O)CN[C@H]1CC2(CCC2)Oc2ncc(CC3(C(F)(F)F)CC3)cc21 [compound 318]	–	–	IC50 [1, 6]: 0.085 µM; IC50 [2, 7]: 0.0347 µM
CC(=O)N[C@@H](Cc1ccccc1)[C@H](O)CN[C@H]1CC2(CCC2)Oc2ncc(CC(C)(F)F)cc21 [compound 272]	0.0147 µM	0.0151 µM	–
CO[C@H](C)C(=O)N[C@@H](Cc1ccc2c(c1)OCO2)[C@H](O)CN[C@H]1CC2(CCC2)Oc2ncc(CC(C)(C)CF)cc21 [compound 190]	0.0432 µM	0.0238 µM	–
COCC(=O)NC(Cc1ccc(F)c(F)c1)C(O)CNC1CC2(CC(O)C2)Oc2ncc(CC(C)(C)C)cc21 [compound 233, N-((1S,2R)-1-((3,4-difluorophenyl)methyl)-3-(((1s,3S,4′S)-6′-(2,2-dimethylpropyl)-3-hydroxy-3′,4′-dihydrospiro[cyclobutane-1,2′-pyrano[2,3-b]pyridin]-4′-yl)amino)-2-hydroxypropyl)-2-(methyloxy)acetamide]	0.00733 µM	0.00724 µM	–
CC(=O)N[C@@H](Cc1ccc(F)cc1)[C@H](O)CN[C@H]1CC2(CCC2)Oc2ncc(CC(C)(F)F)cc21 [compound 274]	0.0727 µM	0.0297 µM	–
COC(C)C(=O)NC(Cc1cc(F)c2c(c1)OCO2)C(O)CNC1CC2(CCC2)Oc2ncc(CC(C)(C)C)cc21 (centres unmarked) [compound 300]	0.137 µM	0.0571 µM	–
COCC(=O)N[C@@H](Cc1cccc(F)c1)[C@H](O)CN[C@H]1CC2(CCC2)Oc2ncc(CC(C)(C)C(F)(F)F)cc21 [compound 73]	0.0531 µM	–	IC50 [2, 5]: 0.016 µM
CC(=O)N[C@@H](Cc1ccc2c(c1)OCO2)[C@H](O)CN[C@H]1CC2(CCC2)Oc2c(F)cc(CC(C)(C)C)cc21 [compound 170]	0.0535 µM	–	IC50 [2, 5]: 0.0125 µM
CC(=O)N[C@@H](Cc1ccccc1)[C@H](O)CN[C@H]1CC2(CCC2)Oc2c1cc(CC(C)(C)C)nc2N1CCC1 [compound 128]	0.016 µM	–	IC50 [2, 5]: 0.0332 µM
COCC(=O)N[C@@H](Cc1cc(F)cc(F)c1)[C@H](O)CN[C@H]1CC2(CCC2)Oc2c(-c3ccncc3)cc(CC(C)(C)F)cc21 [compound 579]	–	–	IC50 ([1]; Homo sapiens, HEK293, HEK cells, read-out: HEK cell assay (IC50)): 0.005 µM; IC50 ([2]; read-out: BACE1 FRET assay (IC50)): 0.014 µM
CC(=O)N[C@@H](Cc1cccc(F)c1)[C@H](O)CN[C@H]1CC2(CCC2)Oc2ncc([C@H](F)[C@H](C)C(F)(F)F)cc21 [compound 322]	–	–	IC50 [1, 6]: 0.0399 µM; IC50 [2, 7]: 0.0109 µM
CO[C@H](C)C(=O)N[C@@H](Cc1cccc(F)c1)[C@H](O)CN[C@H]1CC2(CCC2)Oc2ncc(CC(C)(C)C)cc21 [compound 360]	–	–	IC50 [1, 6]: 0.00482 µM; IC50 [2, 7]: 0.00311 µM
CC(=O)N[C@@H](Cc1ccc(F)cc1)[C@H](O)CN[C@H]1CC2(CCC2)C(F)(F)c2ncc(CC(C)(C)C)cc21 [compound 165]	0.109 µM	–	IC50 [2, 5]: 0.107 µM
CC(=O)N[C@@H](Cc1ccccc1)[C@H](O)CN[C@H]1CC2(CCC2)Oc2ncc(C[C@@H](C)C(F)(F)F)cc21 [compound 317]	–	–	IC50 [1, 6]: 0.0278 µM; IC50 [2, 7]: 0.0197 µM
COCC(=O)N[C@@H](Cc1ccc(F)c(OC(F)(F)F)c1)[C@H](O)CN[C@H]1CC2(CCC2)Oc2ncc(CC(C)(C)C)cc21 [compound 81]	0.014 µM	–	IC50 [2, 5]: 0.00251 µM
CO[C@H](C)C(=O)N[C@@H](Cc1cc(F)c2c(c1)OCO2)[C@H](O)CN[C@H]1CC2(CCC2)Oc2ncc(CC(C)C)cc21 [compound 343]	–	–	IC50 [1, 6]: 0.0417 µM; IC50 [2, 7]: 0.0344 µM
CC(F)(F)Oc1cnc2c(c1)[C@@H](NC[C@@H](O)[C@H](Cc1cccc(F)c1)NC(=O)[C@@H]1CCC(=O)O1)CC1(CCC1)O2 [compound 152]	0.0336 µM	–	IC50 [2, 5]: 0.0106 µM
COCC(=O)N[C@@H](Cc1cccc(F)c1)[C@H](O)CN[C@H]1CC2(CCC2)Oc2ncc(CC(C)(F)F)cc21 [compound 278]	0.00822 µM	0.00676 µM	–
COC(C)C(=O)NC(Cc1ccc2c(c1)OCO2)C(O)CNC1CC2(CC(C)C2)Oc2ncc(CC(C)(C)C)cc21 [compound 239, (2R)—N-((1S,2R)-1-(1,3-benzodioxol-5-ylmethyl)-3-(((1s,3R,4′S)-6′-(2,2-dimethylpropyl)-3-methyl-3′,4′-dihydrospiro[cyclobutane-1,2′-pyrano[2,3-b]pyridin]-4′-yl)amino)-2-hydroxypropyl)-2-(methyloxy)propanamide]	0.0346 µM	0.0178 µM	–
COCCC(=O)N[C@@H](Cc1ccc2c(c1)OCO2)[C@H](O)CN[C@H]1CC2(CCC2)Oc2ncc(CC(C)(C)C)cc21 [compound 197]	0.0219 µM	0.0209 µM	–

More lines, main results first:

IC50 [1, 3]	IC50 [2, 4]	SMILES	other results
0.0113 µM	0.00419 µM	CC(=O)N[C@@H](Cc1cccc(F)c1)[C@H](O)CN[C@H]1CC2(CCC2)Oc2ncc(C[C@H](C)C(F)(F)F)cc21 [compound 314]	–
0.166 µM	0.0505 µM	CC(=O)N[C@@H](Cc1ccc(F)cc1)[C@H](O)CN[C@H]1CC2(CCC2)Oc2ncc(CC3(C(F)(F)F)CC3)cc21 [compound 310]	–
0.0683 µM	0.0313 µM	CC(=O)C(=O)N[C@@H](Cc1ccc2c(c1)OCO2)[C@H](O)CN[C@H]1CC2(CCC2)Oc2ncc(CC(C)(C)C)cc21 [compound 307]	–
